Assay [1] has as its target T1, AQP1 (Homo sapiens, UniProt P29972).
T1 sequence (P29972 1-269): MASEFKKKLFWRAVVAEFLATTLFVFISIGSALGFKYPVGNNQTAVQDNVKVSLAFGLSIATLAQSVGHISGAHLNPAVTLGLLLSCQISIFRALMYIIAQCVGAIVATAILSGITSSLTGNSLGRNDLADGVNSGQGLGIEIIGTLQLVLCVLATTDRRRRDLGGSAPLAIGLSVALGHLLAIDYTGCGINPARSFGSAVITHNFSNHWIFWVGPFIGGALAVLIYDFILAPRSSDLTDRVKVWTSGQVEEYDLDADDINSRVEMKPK
Type of assay: biochemical.

Assay [2] relates to AQP1. Particulars: Xenopus oocytes; cited from earlier work.

These results are taken from PMC5065099 (Chemical biology & drug design, 2016).

Read-outs that look alike come from different tables or passages of the source.

Turning to `[Cl][Hg][Cl]` [HgCl2, mercuric chloride], the “reduction in water transport (inhibitory action)” value in assay [1] (hypotonic shock, compounds at final 75 μM, HgCl2 50 μM) is given as “highly sensitive”.

Regarding `CC[N+](CC)(CC)CC` [TEA, tetraethylammonium], the “reduction in water transport (inhibitory action)” value in assay [1] was “ineffective”. Further, the “inhibition of AQP1 water transport” value in assay [2] is “no inhibition”.

Consider `CC(=O)Nc1nnc(S(N)(=O)=O)s1` [acetazolamide], for which the “inhibition of AQP1 water transport” value in assay [2] was “no inhibition”.
